Positions count from the first letter of the chain named.
Assays:
[1] = biological target: T1, Ba/F3-KIF5B-RET-V804M (Homo sapiens, UniProt P07949, V804M); assay: Cell anti-proliferation (CellTiter-Glo), Ba/F3-KIF5B-RET-V804M cells; assay type: cell-based; settings: cell viability, 72 h incubation
T1 construct: KIF5B (fusion partner, N-terminal part of kinesin-1 heavy chain, P33176); host or cells: Ba/F3 (murine pro-B cells); the other entry of the earlier key: KIF5B (P33176, Kinesin-1 heavy chain)
T1 sequence (P07949 713-1063 V804M limits assumed): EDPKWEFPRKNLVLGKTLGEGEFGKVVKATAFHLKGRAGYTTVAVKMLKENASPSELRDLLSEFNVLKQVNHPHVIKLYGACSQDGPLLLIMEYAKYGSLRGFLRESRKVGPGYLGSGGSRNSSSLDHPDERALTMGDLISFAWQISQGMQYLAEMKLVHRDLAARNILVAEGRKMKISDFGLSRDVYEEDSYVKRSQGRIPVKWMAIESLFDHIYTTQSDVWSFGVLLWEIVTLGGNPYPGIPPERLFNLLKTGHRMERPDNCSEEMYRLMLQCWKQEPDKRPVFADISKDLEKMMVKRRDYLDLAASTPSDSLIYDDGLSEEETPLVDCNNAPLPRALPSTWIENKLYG
Procedure: (§1) Ba/F3-KIF5B-RET, Ba/F3-KIF5B-RET-V804L and Ba/F3-KIF5B-RET-V804M cells were constructed by PreceDo Pharmaceuticals Co., Ltd.
(§2) Ba/F3-KIF5B-RET, Ba/F3-KIF5B-RET-V804L and Ba/F3-KIF5B-RET-V804M medium: RPMI-1640+10% FBS+1% P/S.
(§3) A 1000×solution of the compound was prepared with DMSO, the compound was diluted to 20 times to obtain the final concentration with a growth medium, and 2 μl 1000×cpd was added to 98 μl growth medium.
(§4) Cells were centrifuged and resuspended with growth medium and cell counting was performed using a cell counter. The cell suspension was diluted with growth medium to the desired concentration. 95 uL of the diluted cell suspension was taken out to a 96-well plate. 5 μL of 20×compound solution was added to the 96-well plate to a final DMSO concentration of 0.1% per well. The 96-well plate was incubated for 72 h at 37° C. with 5% CO2.
(§5) The 96-well plate was equilibrated to room temperature before the assay, 50 μl of CellTiter-Glo® Reagent was added to each well, the cells were fully lysed by shaking for 2 minutes on a shaker, incubated for 10 minutes at room temperature, and Paradigm was used to detect and record the […] readings.
(§6) Cell viability was analyzed using Graphpad 7.0 software according to the formula Cell viability (CV %)=(RLU compound−RLU blank)/(RLU control−RLU blank)*100%, and the corresponding IC50 data were calculated, in Table 1, the following names are used: <10.00 nM=A; 10.01-50.0 nM=B; >50 nM=C.

[2] = biological target: T2, Ba/F3-KIF5B-RET (Homo sapiens, UniProt P07949); assay: Cell anti-proliferation (CellTiter-Glo), Ba/F3-KIF5B-RET cells; assay type: cell-based; settings: for IC50: cell viability, 72 h incubation, CellTiter-Glo
T2 construct: KIF5B (fusion partner, N-terminal part of kinesin-1 heavy chain, P33176); host or cells: Ba/F3 (murine pro-B cells); the other entry of the earlier key: KIF5B (P33176, Kinesin-1 heavy chain)
T2 sequence (P07949 713-1063 limits assumed): T1 sequence (P07949 713-1063 V804M limits assumed) with M92V
Procedure: as §1, §2, §3, §4, §5, §6

[3] = tested on: Ba/F3-KIF5B-RET cells; assay: In vivo efficacy study, subcutaneous Ba/F3-KIF5B-RET tumor in nude mice; design: species or system BALB/c nude mice; settings: 10 mg/kg P.O. BID x 3 weeks
Procedure: Cell culture: Ba/F3-KIF5B-RET cell line was cultured with 1640 medium (Biological Industries)+10%/f fetal bovine serum (BI)+1% double antibody (Penicillin Streptomycin solution, Corning, USA) at 37° C. with 5% CO2. Two passages were performed for one week. When the cell saturation was 80%-90% and the number reached the required level, the cells were collected, counted and inoculated.
Animals: BALB/c nude mice, female, 6-8 weeks of age, weighing 18-22 g. A total of 18 mice were required, provided by Beijing Vital River Laboratory Animal Technology Co., Ltd.
Tumor inoculation: 0.2 ml (2×106) Ba/F3-KIF5B-RET cells (plus stromal gel, volume ratio 1:1) were inoculated subcutaneously on the right posterior dorsum of each mouse, and group dosing was started when the average tumor volume reached about 150-200 mm^3.
Experimental index: Tumor volume and body weight were measured twice a week. Tumor volume was measured by vernier calipers with the formula TV=0.5 a×b2, where a is the long diameter of the tumor and b is the short diameter of the tumor.

[4] = biological target: T3, Ba/F3-KIF5B-RET-V804L (Homo sapiens, UniProt P07949, V804L); assay: Cell anti-proliferation (CellTiter-Glo), Ba/F3-KIF5B-RET-V804L cells; assay type: cell-based; settings: cell viability, 72 h incubation
T3 construct: KIF5B (fusion partner, N-terminal part of kinesin-1 heavy chain, P33176); host or cells: Ba/F3 (murine pro-B cells); the other entry of the earlier key: KIF5B (P33176, Kinesin-1 heavy chain)
T3 sequence (P07949 713-1063 V804L limits assumed): T1 sequence (P07949 713-1063 V804M limits assumed) with M92L
Procedure: as §1, §2, §3, §4, §5, §6

| Compound | IC50 [1] | IC50 [2] | IC50 [4] | other results |
| --- | --- | --- | --- | --- |
| CO[C@]1(C(=O)N[C@@H](C)c2ccc(-n3cc(F)cn3)nc2)CC[C@H](c2nc(Nc3cc(C)[nH]n3)c3cnn(C)c3n2)CC1 [Compound C1] | < 10 nM | < 10 nM | < 10 nM | Tumor Volume(mm^3) 0 day ([3]; 0 day): 168.34 mm^3; Tumor Volume(mm^3) 2 days ([3]; 2 days): 162.57 mm^3; Tumor Volume(mm^3) 5 days ([3]; 5 days): 139.55 mm^3; Tumor Volume(mm^3) 9 days ([3]; 9 days): 189.12 mm^3; Tumor Volume(mm^3) 12 days ([3]; 12 days): 222.35 mm^3; Tumor Volume(mm^3) 16 days ([3]; 16 days): 203.41 mm^3; Tumor Volume(mm^3) 19 days ([3]; 19 days): 199.75 mm^3; Tumor Volume(mm^3) 22 days ([3]; 22 days): 199.64 mm^3 |
| CO[C@]1(C(=O)N[C@@H](C)c2ccc(-n3cc(F)cn3)nc2)CC[C@H](c2nc(Nc3cc(C)[nH]n3)c3cnn(COCC[Si](C)(C)C)c3n2)CC1 [Compound C2] | > 50 nM | > 50 nM | 10 to 50 nM |  |
| [2H]C([2H])([2H])n1ncc2c(Nc3cc(C)[nH]n3)nc([C@H]3CC[C@](OC)(C(=O)N[C@@H](C)c4ccc(-n5cc(F)cn5)nc4)CC3)nc21 [Compound C3] | < 10 nM | < 10 nM | < 10 nM |  |
| CCn1ncc2c(Nc3cc(C)[nH]n3)nc([C@H]3CC[C@](OC)(C(=O)N[C@@H](C)c4ccc(-n5cc(F)cn5)nc4)CC3)nc21 [Compound C4] | < 10 nM | < 10 nM | < 10 nM |  |
| CCn1ncc2c(Nc3cc(C)[nH]n3)nc([C@H]3CC[C@](OC)(C(=O)N[C@@H](C)c4cnc(-n5cc(F)cn5)cn4)CC3)nc21 [Compound C5] | < 10 nM | < 10 nM | < 10 nM |  |
| CO[C@]1(C(=O)N[C@@H](C)c2ccc(-n3cc(F)cn3)nc2)CC[C@H](c2nc(Nc3cc(C)[nH]n3)c3cnn(CC(F)F)c3n2)CC1 [Compound C6] | < 10 nM | < 10 nM | < 10 nM |  |
| CO[C@]1(C(=O)N[C@@H](C)c2cnc(-n3cc(F)cn3)cn2)CC[C@H](c2nc(Nc3cc(C)[nH]n3)c3cnn(CC(F)F)c3n2)CC1 [Compound C7] | < 10 nM | < 10 nM | < 10 nM |  |
| CO[C@]1(C(=O)N[C@@H](C)c2cnc(-n3cc(F)cn3)cn2)CC[C@H](c2nc(Nc3cc(C)[nH]n3)c3cnn(C)c3n2)CC1 [Compound C8] | < 10 nM | < 10 nM | < 10 nM |  |
| [2H]C([2H])([2H])n1ncc2c(Nc3cc(C)[nH]n3)nc([C@H]3CC[C@](OC)(C(=O)N[C@@H](C)c4cnc(-n5cc(F)cn5)cn4)CC3)nc21 [Compound C9] | < 10 nM | < 10 nM | < 10 nM |  |
| COCCn1ncc2c(Nc3cc(C)[nH]n3)nc([C@H]3CC[C@](OC)(C(=O)N[C@@H](C)c4cnc(-n5cc(F)cn5)cn4)CC3)nc21 [Compound C10] | 10 to 50 nM | < 10 nM | < 10 nM |  |
| CO[C@]1(C(=O)N[C@@H](C)c2cnc(-n3cc(F)cn3)cn2)CC[C@H](c2nc(Nc3cc(C)[nH]n3)c3cnn(C4CC(F)(F)C4)c3n2)CC1 [Compound C11] | 10 to 50 nM | 10 to 50 nM | 10 to 50 nM |  |
| CO[C@]1(C(=O)N[C@@H](C)c2cnc(-n3cc(F)cn3)cn2)CC[C@H](c2nc(Nc3cc(C)[nH]n3)c3cnn(CC4CC4)c3n2)CC1 [Compound C12] | 10 to 50 nM | < 10 nM | < 10 nM |  |
| CCn1ncc2c(Nc3cc(C)[nH]n3)nc([C@H]3CC[C@](OC)(C(=O)N[C@@H](C)c4cnc(-n5cc(F)cn5)s4)CC3)nc21 [Compound C13] | 10 to 50 nM | < 10 nM | < 10 nM |  |
| CO[C@]1(C(=O)N[C@@H](C)c2cnc(-n3cc(F)cn3)s2)CC[C@H](c2nc(Nc3cc(C)[nH]n3)c3cnn(C4CC4)c3n2)CC1 [Compound C14] | 10 to 50 nM | < 10 nM | < 10 nM |  |
| CCn1ncc2c(Nc3cc(C)[nH]n3)nc([C@H]3CC[C@](OC)(C(=O)N[C@@H](C)c4csc(-n5cc(F)cn5)n4)CC3)nc21 [Compound C15] | 10 to 50 nM | < 10 nM | < 10 nM |  |
| CO[C@]1(C(=O)N[C@@H](C)c2csc(-n3cc(F)cn3)n2)CC[C@H](c2nc(Nc3cc(C)[nH]n3)c3cnn(C4CC4)c3n2)CC1 [Compound C16] | 10 to 50 nM | < 10 nM | < 10 nM |  |
| CO[C@]1(C(=O)N[C@@H](C)c2ccc(-n3cc(F)cn3)nc2)CC[C@H](c2nc(Nc3cc(C)[nH]n3)c3cnn(CCF)c3n2)CC1 [Compound C18] | < 10 nM | < 10 nM | < 10 nM |  |
| CO[C@]1(C(=O)N[C@@H](C)c2cnc(-n3cc(F)cn3)cn2)CC[C@H](c2nc(Nc3cc(C)[nH]n3)c3cnn(C4CC4)c3n2)CC1 [Compound C20] | < 10 nM | < 10 nM | < 10 nM |  |
| CO[C@]1(C(=O)N[C@@H](C)c2cnc(-n3cc(F)cn3)cn2)CC[C@H](c2nc(Nc3cc(C)[nH]n3)c3cnn(C4COC4)c3n2)CC1 [Compound C21] | 10 to 50 nM | 10 to 50 nM | 10 to 50 nM |  |
| CCCn1ncc2c(Nc3cc(C)[nH]n3)nc([C@H]3CC[C@](OC)(C(=O)N[C@@H](C)c4cnc(-n5cc(F)cn5)cn4)CC3)nc21 [Compound C22] | 10 to 50 nM | 10 to 50 nM | 10 to 50 nM |  |
| CO[C@]1(C(=O)N[C@@H](C)c2cnc(-n3cc(F)cn3)cn2)CC[C@H](c2nc(Nc3cc(C)[nH]n3)c3cnn(CC(F)(F)F)c3n2)CC1 [Compound C23] | 10 to 50 nM | < 10 nM | < 10 nM | RET inhibitory activity / inhibition effect (in words) ([2]; summary of Table 1, especially Ba/F3-KIF5B-RET-V804M and Ba/F3-KIF5B-RET-V804L): superior to that of Control Example 3 |
| CO[C@]1(C(=O)N[C@@H](C)c2cnc(-n3cc(F)cn3)cn2)CC[C@H](c2nc(Nc3cc(C)[nH]n3)c3cn(CC(F)(F)F)nc3n2)CC1 [Control Example 3, reference compound] | > 50 nM | 10 to 50 nM | 10 to 50 nM |  |

Reference: patent US12545681B2, “Compound used as RET kinase inhibitor and application thereof” (TYK Medicines, Inc., priority 2020, dated 2026)
